The values that follow come from PubChem BioAssay AID1259407 (Chemical Carcinogenesis Research Information System (CCRIS), 2018).

In this series the test system is CCRIS mutagenicity, Ames/micronucleus/aberration tests. Put plainly: CCRIS mutagenicity studies.

Active and inactive are the calls of the source. The rule behind the calls is not given here.

As to `COc1ccc(C(O)(c2cncnc2)C2CC2)cc1` (centres undefined), the mutagenic call by setting is: (Test System: Ames Salmonella typhimurium, Strain/Indicator: TA98, Metabolic Activation: None, Method: Standard Plate) “inactive; negative”; (Test System: Ames Salmonella typhimurium, Strain/Indicator: TA98, Metabolic Activation: Rat, liver, S-9, Method: Standard Plate) “inactive; negative”; (Test System: Ames Salmonella typhimurium, Strain/Indicator: TA100, Metabolic Activation: None, Method: Standard Plate) “inactive; negative”; (Test System: Ames Salmonella typhimurium, Strain/Indicator: TA100, Metabolic Activation: Rat, liver, S-9, Method: Standard Plate) “inactive; negative”; (Test System: Ames Salmonella typhimurium, Strain/Indicator: TA1535, Metabolic Activation: None, Method: Standard Plate) “inactive; negative”; (Test System: Ames Salmonella typhimurium, Strain/Indicator: TA1535, Metabolic Activation: Rat, liver, S-9, Method: Standard Plate) “inactive; negative”. For the same compound, the mutagenic call was “inactive; negative” (Test System: Ames Salmonella typhimurium, Strain/Indicator: TA1537, Metabolic Activation: None, Method: Standard Plate); “inactive; negative” (Test System: Ames Salmonella typhimurium, Strain/Indicator: TA1537, Metabolic Activation: Rat, liver, S-9, Method: Standard Plate); “inactive; negative” (Test System: Ames Salmonella typhimurium, Strain/Indicator: TA1538, Metabolic Activation: None, Method: Standard Plate); “inactive; negative” (Test System: Ames Salmonella typhimurium, Strain/Indicator: TA1538, Metabolic Activation: Rat, liver, S-9, Method: Standard Plate); “inactive; negative” (Test System: Mouse lymphoma, Strain/Indicator: L5178Y (TK+/TK-), Metabolic Activation: None, Method: Suspension/Plate); “inactive; negative” (Test System: Mouse lymphoma, Strain/Indicator: L5178Y (TK+/TK-), Metabolic Activation: S-9 of unspecified origin, Method: Suspension/Plate).
As for `[O]=[Mg]`, the mutagenic call is, setting by setting: (Test System: AMES SALMONELLA TYPHIMURIUM, Strain/Indicator: TA97, Metabolic Activation: NONE, Method: PREINCUBATION) “inactive; negative”; (Test System: AMES SALMONELLA TYPHIMURIUM, Strain/Indicator: TA97, Metabolic Activation: S-9, Method: PREINCUBATION) “inactive; negative”; (Test System: AMES SALMONELLA TYPHIMURIUM, Strain/Indicator: TA100, Metabolic Activation: NONE, Method: PREINCUBATION) “inactive; negative”; (Test System: AMES SALMONELLA TYPHIMURIUM, Strain/Indicator: TA100, Metabolic Activation: RAT, LIVER, S-9, Method: PREINCUBATION) “inactive; negative”; (Test System: AMES SALMONELLA TYPHIMURIUM, Strain/Indicator: TA102, Metabolic Activation: NONE, Method: PREINCUBATION) “inactive; negative”; (Test System: AMES SALMONELLA TYPHIMURIUM, Strain/Indicator: TA102, Metabolic Activation: S-9, Method: PREINCUBATION) “inactive; negative”.
As for `O=[N+]([O-])c1cccc2c1-c1cccc3c([N+](=O)[O-])ccc-2c13`, the mutagenic call runs as follows: (Test System: AMES SALMONELLA TYPHIMURIUM, Strain/Indicator: TA97, Metabolic Activation: NONE) “active; positive”; (Test System: AMES SALMONELLA TYPHIMURIUM, Strain/Indicator: TA98(1,8-DNP6), Metabolic Activation: NONE) “active; positive”; (Test System: AMES SALMONELLA TYPHIMURIUM, Strain/Indicator: TA98(NR), Metabolic Activation: NONE) “active; positive”; (Test System: AMES SALMONELLA TYPHIMURIUM, Strain/Indicator: TA98, Metabolic Activation: NONE) “active; positive”; (Test System: AMES SALMONELLA TYPHIMURIUM, Strain/Indicator: TA100, Metabolic Activation: NONE) “active; positive”; (Test System: AMES SALMONELLA TYPHIMURIUM, Strain/Indicator: TA1535, Metabolic Activation: NONE) “inactive; negative”. Besides, the mutagenic call was “active; positive” (Test System: AMES SALMONELLA TYPHIMURIUM, Strain/Indicator: TA1537, Metabolic Activation: NONE); “active; positive” (Test System: AMES SALMONELLA TYPHIMURIUM, Strain/Indicator: TA1538, Metabolic Activation: NONE); “active; positive” (Test System: AMES SALMONELLA TYPHIMURIUM, Strain/Indicator: TA1978, Metabolic Activation: NONE).
On to `O=[N+]([O-])c1ccc2c(Cl)nsc2c1`, for which the mutagenic call (Test System: AMES SALMONELLA TYPHIMURIUM, Strain/Indicator: TA98, Metabolic Activation: NONE, Method: STANDARD PLATE) was “active; positive”.
As to `COc1ccc(Cc2nccc3cc(OC)c(OC)cc23)cc1OC`, the mutagenic call (Test System: AMES SALMONELLA TYPHIMURIUM, Strain/Indicator: TA100, Metabolic Activation: RAT, LIVER, S-9, PHENOBARBITAL AND BETA-NAPHTHOFLAVONE, Method: PREINCUBATION) is “active; positive”.
